Data reported in patent publication US20250302846A1, “ANTIBIOTIC COMPOSITION AND METHODS OF USE THEREOF” (THE REGENTS OF THE UNIVERSITY OF COLORADO A BODY CORPORATE, priority 2022, published 2025).

Key:
[1] = test system: S. Typhimurium SL1344 or 14028 in HeLa cells; test: CFU assay in infected HeLa cells; assay type: cell-based
Method: FIG. 1A-D. D66 is a small molecule that prevents S. Typhimurium replication and/or survival in macrophages. A). Structure of D66. B) RAW264.7 macrophage-like cells were infected with S. Typhimurium harboring a chromosomal sifB: : gfp reporter, treated with DMSO or D66 at two hours after infection, and monitored for bacterial accumulation (GFP+Macrophage Area) over 16 hours using the SAFIRE (Screen for Anti-infectives using Fluorescence microscopy of Intracellular Enterobacteriaceae) assay. The IC50 value is indicated. Mean and SD of biological duplicates with technical duplicates across 9 dilutions of D66. C, D) CFU assays were performed with RAW264.7 or HeLa cells infected with S. Typhimurium SL1344 or 14028 for two hours and treated for 16 hours with DMSO or 1.5-fold dilutions of D66, prior to lysis and plating for CFU. Symbols on the Y-axes are the CFU value from DMSO-treated samples. The IC50 values are indicated. Mean and SEMs of biological triplicates with technical duplicates across 8 dilutions of D66.
CFU assays were performed with RAW 264.7 cells seeded as above or with Hela cells (ATCC CCL-2) seeded at 1x10^4 cells per 96-well. Cells were infected as described above with either S. Typhimurium SL1344 or 14028, as indicated at an approximate MOI of 30 bacteria per RAW 264.7 cell and 150 bacteria per HeLa cell. Plates were centrifuged and gentamicin treated as above. […]

[2] = test system: S. Typhimurium; test: Bacterial membrane potential assay with DiSC3(5); assay type: cell-based; conditions: mid-log cells in LB with PMB [0.5 μg/mL]; corrected for quenching by D66; JD1 [70 μM]
Method: FIG. 3A-F. D66 rapidly perturbs the bacterial cytoplasmic membrane with minor disruption of barrier function. Mid-log phase S. Typhimurium cells grown in LB with 0.5 μg/mL PMB were used for all experiments. A) Cell membrane potential was monitored with the fluorescent dye DiSC3 (5). Cells were treated at time 0 with DMSO, JD1 [70 μM], or D66. Data were normalized to DMSO at time 0 and corrected for the quenching effect of D66 (FIG. 6A, B) B) Cell membrane permeability was monitored by PI fluorescence. Cells were treated at time 0 with DMSO, SDS [0.005%] or D66. Samples were processed at the time points shown. A one-way ANOVA with a Dunnet's multiple comparison test, * P<0.005. C-F) Growth curves and kill-curves of cells treated at time 0 with either DMSO or D66. Culture aliquots were monitored for OD600 (C, E) or plated for enumeration of CFU (D, F). Data are presented as fold change. Mean and SEM of three biological replicates with technical triplicates are shown in all panels.
Bacterial Membrane potential assays: Membrane potential was measured using the potentiometric fluorescent probe DiSC3 (5) (Invitrogen). Mid-log phase cells were diluted to an OD600 of 0.4. […] Plates were monitored (ex650/em680 nm) on a BioTek Synergy H1 plate reader. After baseline fluorescence was recorded, compound was added to the desired final concentration and measurements were recorded for an additional 30 minutes. […]

[3] = Murine pharmacokinetic analysis; assay type: in vivo, C57BL/6 mice; conditions: mice, 50 mg/kg IP
Method: FIG. 7A-B. D66 pharmacokinetic parameters. Values were calculated by compartmental modeling using Phoenix WinNonlin. Data fit a two-compartment model (r=0.9976) with bolus dosing. A) Decay curve. B) Parameter values.
Murine pharmacokinetic analyses and infections: Three female C57BL/6 mice were injected intraperitoneally (IP) with 50 mg/kg of D66 formulated in DMSO (50 μL). […] Three mice were initially dosed and observed for 24 hours to determine tolerability. […] Plasma D66 levels were measured using a liquid chromatography coupled to tandem mass spectrometry (LC/MS/MS) assay by the University of Colorado Cancer Center Drug Discovery and Development Shared Resource. The assay used monitored the transition of D66 (376 m/z->176 m/z) and was linear from 1-1000 ng/ml with an accuracy and precision of 90.3%+10.4% (% CV) based on quality control (QC) samples included with analyzed unknown samples.

SMILES: O=C(Nc1cc(Cl)cc(Cl)c1)N1CCCN(Cc2ccccc2)CC1 [D66]
- ability to reduce bacterial load in Hela cells [1]: little effect
- reduction in CFU [1]: 5-10 fold
- DiSC3(5) fluorescence (membrane voltage) [2]: rapidly increased the fluorescence of DiSC3 (5) in a dose-dependent manner
- half-life ([3]; female, C57BL/6, mouse, plasma, two-compartment model, read-out: elimination (terminal) half-life (converted)): 3 h
- peak serum concentration [3]: 3.5 µM
- steady state volume of distribution (Vss) [3]: 43.3 L/kg
- elimination (terminal) half-life ([3]; two-compartment model, 50 mg/kg): 3.0 h
